From ChEMBL document CHEMBL4406815, “Natural product derived promising anti-MRSA drug leads: A review” (Bioorg Med Chem, 2019)
≈ marks a conversion by molar mass, not a printed value. Each block holds one compound with its values, some of them ahead of it.

How the values were obtained:
[1] = system: Staphylococcus aureus; test: Antibacterial activity against methicillin-resistant Staphylococcus aureus; assay type: functional
[2] = system: HT-29; test: Cytotoxicity against human HT-29 cells assessed as reduction in cell viability after 24 hrs by MTS assay; assay type: functional, cell-based; details: HT-29, 24 h
[3] = system: Staphylococcus aureus; test: Antibacterial activity against methicillin-resistant Staphylococcus aureus ATCC 43300; assay type: functional
[4] = system: Staphylococcus aureus; test: Antibacterial activity against methicillin-resistant Staphylococcus aureus CGMCC 1.12409; assay type: functional
[5] = system: Staphylococcus aureus; test: Antibacterial activity against methicillin-resistant Staphylococcus aureus ATCC 33591; assay type: functional
[6] = system: Staphylococcus aureus; test: Bactericidal activity against methicillin-resistant Staphylococcus aureus; assay type: functional
[7] = system: Staphylococcus aureus; test: Antibacterial activity against methicillin-resistant Staphylococcus aureus ATCC 43300 after 18 hrs; assay type: functional, organism-based; details: ATCC 43300, 18 h
[8] = system: Staphylococcus aureus; test: Antibacterial activity against methicillin-resistant Staphylococcus aureus TISTR 1466 by two-fold serial dilution method; assay type: functional
[9] = Inhibition of methicillin-resistant Staphylococcus aureus pyruvate kinase
[10] = system: Staphylococcus aureus; test: Antibacterial activity against methicillin-sensitive Staphylococcus aureus ATCC 25923 after 24 to 72 hrs by two-fold serial dilution method; assay type: functional
[11] = system: Staphylococcus aureus; test: Antibacterial activity against methicillin resistant Staphylococcus aureus BAA 1762 after 24 to 72 hrs by two-fold serial dilution method; assay type: functional
[12] = system: Staphylococcus aureus; test: Antibacterial activity against methicillin-resistant Staphylococcus aureus SK1 by two-fold serial dilution method; assay type: functional
[13] = system: Erythrocyte; test: Hemolytic activity against human erythrocytes; assay type: ADME, cell-based
[14] = Cytotoxicity against African green monkey Vero cells assessed as reduction in cell viability by MTT assay; assay type: cell-based; details: chlorocebus sabaeus, read-out: MIC
[15] = system: Staphylococcus aureus; test: Antimicrobial activity against Staphylococcus aureus ATCC 6538 after 24 hrs by colony counting method; assay type: functional; details: ATCC 6538, 24 h

SMILES: CCCCOc1c(OC)cc(/C=C2\SC(=O)NC2=O)c2c1CN1CCc3cc4c(cc3C1C2)OCO4 (stereo not given)
MIC [1]: 8 µM

SMILES: O=c1cc(-c2ccc(O)c(O)c2)oc2cc(O)cc(O)c12 [LUTEOLIN]
IC50 [2]: 45 µM

SMILES: CC1=C[C@H]2c3c(O)c(O)c4oc5cc(O)cc(O)c5c(=O)c4c3[C@H](c3cc(O)c(O)c4oc5cc(O)cc(O)c5c(=O)c34)[C@H]2C(C)(C)C1
MIC [3]: 3.9 µg/mL (≈ 5.98 µM)
MIC [4]: 3.9 µg/mL (≈ 5.98 µM)

SMILES: CCCCCCC(C)/C=C(\C)C(=O)O[C@@]1(C)C(=O)C2=COC(c3c(C)cccc3O)=CC2=C(Cl)C1=O (stereo not given in full)
MIC [3]: 3.13 to 6.25 µg/mL (≈ 6.1 to 12.2 µM)
MIC [5]: 3.13 to 6.25 µg/mL (≈ 6.1 to 12.2 µM)

SMILES: COc1ccc2cc1Oc1ccc(cc1)C[C@H]1c3cc(c(OC)cc3CCN1C)Oc1c(OC)c(OC)cc3c1[C@H](C2)N(C)CC3 [FANCHININ]
MIC [1]: 6 to 128 µg/mL
MIC [6]: 256 to 1020 µg/mL (≈ 411 to 1640 µM)

SMILES: COc1c(-c2ccc(O)c(O)c2)oc2cc(O)cc(O)c2c1=O [3-O-METHYLQUERCETIN]
IC50 [7]: 6.4 µM

SMILES: CCCCCCC(C)/C=C(\C)C(=O)O[C@@]1(C)C(=O)C2=COC(C3=C(C)CC(O)CC3=O)=CC2=C(Cl)C1=O (stereo not given in full)
MIC [3]: 3.13 to 6.25 µg/mL (≈ 5.89 to 11.8 µM)
MIC [5]: 3.13 to 6.25 µg/mL (≈ 5.89 to 11.8 µM)

SMILES: COc1ccc2c(c1OC)C(O)N(C)c1c-2ccc2cc3c(cc12)OCO3 (stereo not given)
MIC [1]: 0.49 to 15.6 µg/mL
MBC [6]: 1.95 to 62.5 µg/mL (≈ 5.34 to 171 µM)

SMILES: COc1ccc2cc1Oc1ccc(cc1)C[C@H]1c3cc(c(OC)cc3CCN1C)Oc1c(O)c(OC)cc3c1[C@H](C2)N(C)CC3 [FANGCHINOLINE]
MIC [1]: 6 to 128 µg/mL
MIC [6]: 256 to 1020 µg/mL (≈ 421 to 1680 µM)

SMILES: COc1cc(OC)c(C2COc3c(cc(/C=C/C(=O)c4ccco4)c4c3C=CC(C)(C)O4)C2)cc1/C=C/C(=O)c1ccco1 (stereo not given)
MIC [1]: 12.5 µg/mL

SMILES: C=C(C)/C=C/c1c(C(=O)OC)cc(O)c2[nH]c3ccccc3c12
MIC [8]: 4 µg/mL (≈ 13 µM)

SMILES: CCCCCCC(C)/C=C(\C)C(=O)O[C@@]1(C)C(=O)C=C2C=C(c3c(C)cccc3O)OC=C2C1=O (stereo not given in full)
MIC [3]: 3.13 to 6.25 µg/mL (≈ 6.54 to 13.1 µM)
MIC [5]: 3.13 to 6.25 µg/mL (≈ 6.54 to 13.1 µM)

SMILES: O=C1NC[C@@H](c2c[nH]c3cc(Br)ccc23)N[C@H]1c1c[nH]c2cc(Br)ccc12 (relative stereo) [CIS-3,4-DIHYDROHAMACANTHIN B]
MIC [1]: 12.5 µg/mL
IC50 [9]: 0.016 to 0.06 µM

SMILES: COC(=O)/C=C/C(=O)c1ccc(Cl)cc1
MIC [10]: 0.35 to 0.75 µg/mL (≈ 1.56 to 3.34 µM)
MIC [11]: 0.35 to 0.75 µg/mL (≈ 1.56 to 3.34 µM)

SMILES: C=C(C)C1Cc2c(cc(OC)c3[nH]c4ccccc4c23)C(=O)O1 (stereo not given) [CLAUSAMINE B]
MIC [12]: 0.25 µg/mL (≈ 0.813 µM)
MIC [8]: 8 µg/mL (≈ 26 µM)

SMILES: CN[C@H](CC(C)C)C(=O)N[C@H]1C(=O)N[C@@H](CC(N)=O)C(=O)N[C@H]2C(=O)N[C@H]3C(=O)N[C@H](C(=O)N[C@H](C(=O)O)c4cc(O)cc(O)c4-c4cc3ccc4O)[C@H](O)c3ccc(c(Cl)c3)Oc3cc2cc(c3O[C@@H]2O[C@H](CO)[C@@H](O)[C@H](O)[C@H]2O[C@H]2C[C@](C)(N)[C@H](O)[C@H](C)O2)Oc2ccc(cc2Cl)[C@H]1O [VANCOMYCIN]
MIC [1]: 1.25 µg/mL

SMILES: COc1c(OCCCCN)cc2oc3cc(OCCCCN)c(CC=C(C)C)c(O)c3c(=O)c2c1CC=C(C)C
MHC [13]: 80.2 µg/mL
MIC [1]: 1560 to 3120 µM

MIC [15]: 15 to 62 µg/mL (≈ 32.6 to 135 µM)
SMILES: CCCC(=O)C1=C(O)C(C)(C)C(O)=C(Cc2c(O)c(C)c(OC)c(C(=O)CCC)c2O)C1=O
MCC [14]: 48.1 µg/mL
